We go through 31 compounds from patent US20070027201A1 (Wyeth, priority 2005, published 2007).

This assay concerns the target T1, progesterone receptor (Homo sapiens, UniProt P06401).
T1 sequence (P06401 1-933): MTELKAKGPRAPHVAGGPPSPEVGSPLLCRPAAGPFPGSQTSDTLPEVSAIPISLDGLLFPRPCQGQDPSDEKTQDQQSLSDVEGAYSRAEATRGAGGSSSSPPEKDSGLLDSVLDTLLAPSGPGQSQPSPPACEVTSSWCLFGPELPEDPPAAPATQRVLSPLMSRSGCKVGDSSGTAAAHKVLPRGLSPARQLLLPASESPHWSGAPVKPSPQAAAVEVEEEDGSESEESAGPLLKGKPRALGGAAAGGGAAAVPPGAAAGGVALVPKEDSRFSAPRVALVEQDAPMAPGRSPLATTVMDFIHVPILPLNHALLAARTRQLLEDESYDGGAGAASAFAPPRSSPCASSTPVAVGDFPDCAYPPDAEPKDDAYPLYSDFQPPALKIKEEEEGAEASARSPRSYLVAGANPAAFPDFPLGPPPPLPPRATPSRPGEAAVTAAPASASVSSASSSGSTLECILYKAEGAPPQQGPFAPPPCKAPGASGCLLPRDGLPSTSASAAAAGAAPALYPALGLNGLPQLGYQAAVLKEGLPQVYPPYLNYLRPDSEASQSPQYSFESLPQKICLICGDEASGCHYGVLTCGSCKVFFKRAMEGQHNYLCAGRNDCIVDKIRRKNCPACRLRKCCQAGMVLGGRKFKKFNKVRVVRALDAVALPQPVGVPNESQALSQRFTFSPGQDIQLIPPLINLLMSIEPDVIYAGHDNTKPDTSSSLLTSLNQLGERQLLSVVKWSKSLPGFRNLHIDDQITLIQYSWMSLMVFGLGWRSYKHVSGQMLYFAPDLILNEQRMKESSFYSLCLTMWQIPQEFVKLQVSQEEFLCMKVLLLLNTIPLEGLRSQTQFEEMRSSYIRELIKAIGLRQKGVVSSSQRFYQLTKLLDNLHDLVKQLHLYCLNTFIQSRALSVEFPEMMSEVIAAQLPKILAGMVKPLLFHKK
Nature of the assay: T47D alkaline phosphatase assay for progesterone receptor modulator (antagonist) activity. The assay is classed as cell-based. Further details: endogenous in cells; host or cells: T47D cells. The conditions noted are these: T47D cells; for IC50: antagonist mode in the presence of 1 nM progesterone, 24 hours; for Antagonist Efficacy: in the presence of 1 nM progesterone. The method, then: An assay was performed to identify compounds having progesterone receptor modulator activity. This assay identifies progestins or antiprogestins by determining a compound's effect on alkaline phosphatase activity in T47D cells.
Culture medium: DMEM:F12 (1:1) (GIBCO, BRL) supplemented with 5% (v/v) charcoal stripped fetal bovine serum (not heat-inactivated), 100 U/mL penicillin, 100 μg/mL streptomycin, and 2 mM the GlutaMax® reagent (GIBCO, BRL).
Alkaline phosphatase assay buffer: • I. 0.1M Tris-HCl, pH 9.8, containing 0.2% the Triton™ X-100 reagent • II. 0.1M Tris-HCl, pH 9.8, containing 4 mM p-nitrophenyl phosphate (Sigma).
Frozen T47D cells are thawed in a 37° C. water bath and diluted to 280,000 cells/mL in culture medium. To each well in a 96-well plate (Falcon, Becton Dickinson Labware), 180 μL of diluted cell suspension is added.
Twenty μL of reference or test compounds diluted in the culture medium is then added to each well. When testing for progestin antagonist activity, reference antiprogestins or test compounds are added in the presence of 1 nM progesterone. The cells are incubated at 37° C. in a 5% CO2/humidified atmosphere for 24 hours.
For high throughput screening, one concentration of each compound will be tested at 0.3 μg/mL. Based on an average molecular weight of 300 g/mol for the compounds in the library, the concentration is approximately 1 μM. Subsequently, active compounds will be tested in dose response assays to determine EC50 and IC50.
At the end of treatment, the medium is removed from the plate. Fifty μL of assay buffer I is added to each well. The plates are shaken in a titer plate shaker for 15 minutes. Then 150 μL of assay buffer II is added to each well. Optical density measurements are taken at 5 minute intervals for 30 minutes at a test wavelength of 405 nm.
Analysis of dose-response data. For reference and test compounds, a dose response curve is generated for dose (x-axis) vs. the rate of enzyme reaction (slope) (y-axis). Square root-transformed data are used for analysis of variance and nonlinear dose response curve fitting for both agonist and antagonist modes. Huber weighting is used to down-weight the effects of outliers. EC50 or IC50 values are calculated from the retransformed values. The JMP® software (SAS Institute, Inc.) is used for both one-way analysis of variance and non-linear dose response analysis in both single dose and dose response studies.
Progesterone and trimegestone are reference progestins and RU486 is the reference antiprogestin. All reference compounds are run in full dose response curves and the EC50 and IC50 values are calculated.
In the table provided above, the IC50 values show the relative progesterone receptor antagonist activity in this assay. Lower numbers are indicative of higher potency, i.e., greater PR antagonist activity. Further, the assay has a standard deviation of about ±6.

In general, IC50 refers to the concentration that gives 50% inhibition. Turning to `Cn1c(C#N)ccc1-c1ccc(NS(C)(=O)=O)cc1C(F)(F)F` [Example 52, N-[4-(5-cyano-1-methyl-1H-pyrrol-2-yl)-3-(trifluoromethyl)phenyl]methane-sulfonamide], the IC50 is 0.0134 µM.

For `CCOC(=O)Nc1ccc(-c2ccc(C#N)n2C)cc1` [Example 13, Ethyl[4-(5-cyano-1-methyl-1H-pyrrol-2-yl)phenyl]carbamate], the IC50 came to 0.266 µM.

Regarding `CC(C)c1cc(-c2ccc(C#N)n2C)ccc1NC#N` [Example 32, [4-(5-cyano-1-methyl-1H-pyrrol-2-yl)-2-isopropylphenyl]cyanamide], the IC50 is less than 0.3 µM.

As to `CCCS(=O)(=O)Nc1ccc(-c2ccc(C#N)n2C)cc1` [Example 16, N-[4-(5-cyano-1-methyl-1H-pyrrol-2-yl)phenyl]propane-1-sulfonamide], the IC50 came out at 0.0098 µM.

`CC(C)c1ccc(S(=O)(=O)Nc2ccc(-c3ccc(C#N)n3C)cc2)cc1` [Example 20, N-[4-(5-cyano-1-methyl-1H-pyrrol-2-yl)phenyl]-4-isopropylbenzenesulfonamide]: the IC50 is approximately 3 µM.

In the case of `Cn1c(C#N)ccc1-c1ccc(NS(C)(=O)=O)cc1C#N` [Example 74, N-[3-cyano-4-(5-cyano-1-methyl-1H-pyrrol-2-yl)phenyl]methanesulfonamide], the IC50 stood at 0.198 µM.

For the compound `CCCC(=O)Nc1ccc(-c2ccc(C#N)n2C)cc1` [Example 7, N-[4-(5-cyano-1-methyl-1H-pyrrol-2-yl)phenyl]butanamide], the IC50 turned out to be 0.0788 µM.

As to `Cn1c(C#N)ccc1-c1ccc(NS(C)(=O)=O)cc1F` [Example 40, N-[4-(5-cyano-1-methyl-1H-pyrrol-2-yl)-3-fluorophenyl]methanesulfonamide], the “Active Dose” value worked out at 10 µM and the IC50 worked out at 0.0183 µM.

Regarding `CCCn1c(C#N)ccc1-c1ccc(NS(=O)(=O)CC)cc1` [Example 67, N-[4-(5-cyano-1-propyl-1H-pyrrol-2-yl)phenyl]ethanesulfonamide], the IC50 turned out to be 0.721 µM.

`CCS(=O)(=O)Nc1ccc(-c2ccc(C#N)n2C)c(C#N)c1` [Example 75, N-[3-cyano-4-(5-cyano-1-methyl-1H-pyrrol-2-yl)phenyl]ethanesulfonamide]: the IC50 is 0.124 µM.

For `Cn1c(C#N)ccc1-c1ccc(N2CCCS2(=O)=O)cc1` [Example 57, 5-[4-(1,1-dioxidoisothiazolidin-2-yl)phenyl]-1-methyl-1H-pyrrole-2-carbonitrile], the 50% inhibitory concentration (IC50) was found to be 0.18 µM.

Regarding `CCCCS(=O)(=O)Nc1ccc(-c2ccc(C#N)n2C)cc1` [Example 18, N-[4-(5-cyano-1-methyl-1H-pyrrol-2-yl)phenyl]butane-1-sulfonamide], the IC50 is approximately 0.3 µM.

With `CCCS(=O)(=O)Nc1ccc(-c2ccc(C#N)n2C)c(C(F)(F)F)c1` [Example 54, N-[4-(5-cyano-1-methyl-1H-pyrrol-2-yl)-3-(trifluoromethyl)phenyl]propane-1-sulfonamide], the IC50 is 0.0094 µM.

`Cn1c(C#N)ccc1-c1ccc(N)c(F)c1` [Example 2, 5-(4-amino-3-fluorophenyl)-1-methyl-1H-pyrrole-2-carbonitrile]: the IC50 stood at 0.0654 µM.

Take `CC(=O)Nc1ccc(-c2ccc(C#N)n2C)cc1` [Example 8, N-[4-(5-cyano-1-methyl-1H-pyrrol-2-yl)phenyl]acetamide]: the IC50 is approximately 0.3 µM.

Take `CCn1c(C#N)ccc1-c1ccc(NS(=O)(=O)CC)cc1` [Example 66, N-[4-(5-cyano-1-ethyl-1H-pyrrol-2-yl)phenyl]ethanesulfonamide]: the concentration for half-maximal inhibition (IC50) worked out at 0.0841 µM and the “Antagonist Efficacy” value was determined as 80%.

Regarding `CCCCS(=O)(=O)Nc1ccc(-c2ccc(C#N)n2C)c(C(F)(F)F)c1` [Example 55, N-[4-(5-cyano-1-methyl-1H-pyrrol-2-yl)-3-(trifluoromethyl)phenyl]butane-1-sulfonamide], the IC50 amounted to 0.0537 µM.

As to `CCS(=O)(=O)Nc1ccc(-c2ccc(C#N)n2C)cc1OC(F)(F)F` [Example 60, N-[4-(5-cyano-1-methyl-1H-pyrrol-2-yl)-2-(trifluoromethoxy)phenyl]ethane-sulfonamide], the IC50 stood at 0.0358 µM.

As to `Cn1c(C#N)ccc1-c1ccc(NC(=O)C2CCC2)cc1` [Example 10, N-[4-(5-cyano-1-methyl-1H-pyrrol-2-yl)phenyl]cyclobutane-carboxamide], the IC50 was determined as 0.0839 µM.

For the compound `CCCS(=O)(=O)Nc1cc(F)c(-c2ccc(C#N)n2C)c(F)c1` [Example 81, N-[4-(5-cyano-1-methyl-1H-pyrrol-2-yl)-3,5-difluorophenyl]propane-1-sulfonamide], the IC50 came to 0.0062 µM.

`CCS(=O)(=O)Nc1ccc(-c2ccc(C#N)n2C)cc1F` [Example 27, N-[4-(5-cyano-1-methyl-1H-pyrrol-2-yl)-2-fluorophenyl]ethane-sulfonamide]: the IC50 amounted to 0.0299 µM.

Turning to `Cn1c(C#N)ccc1-c1ccc(N(S(C)(=O)=O)S(C)(=O)=O)cc1` [Example 17, N-[4-(5-cyano-1-methyl-1H-pyrrol-2-yl)phenyl]-N-(methylsulfonyl)methane sulfonamide], the IC50 was approximately 0.3 µM.

Take `CC(C)C(=O)Nc1ccc(-c2ccc(C#N)n2C)cc1` [Example 5, N-[4-(5-cyano-1-methyl-1H-pyrrol-2-yl)phenyl]-2-methylpropanamide]: the IC50 was 0.168 µM.

For the compound `Cn1c(C#N)ccc1-c1c(F)cc(NS(C)(=O)=O)cc1F` [Example 79, N-[4-(5-cyano-1-methyl-1H-pyrrol-2-yl)-3,5-difluorophenyl]-methanesulfonamide], the IC50 was 0.016 µM.

`CCS(=O)(=O)Nc1ccc(-c2ccc(C#N)[nH]2)cc1` [Example 65, N-[4-(5-cyano-1H-pyrrol-2-yl)phenyl]ethanesulfonamide]: the IC50 stood at 0.0686 µM and the “Antagonist Efficacy” value is listed as 85%.

Turning to `C=CCn1c(C#N)ccc1-c1ccc(NS(=O)(=O)CC)cc1` [Example 69, N-[4-(1-allyl-5-cyano-1H-pyrrol-2-yl)phenyl]ethanesulfonamide], the IC50 was determined as 0.6 µM.

In the case of `CCC(=O)Nc1ccc(-c2ccc(C#N)n2C)cc1` [Example 6, N-[4-(5-cyano-1-methyl-1H-pyrrol-2-yl)phenyl]propanamide], the IC50 was found to be 0.0767 µM.

On to `Cn1c(C#N)ccc1-c1ccc(NC(=O)c2ccccc2)cc1` [Example 9, N-[4-(5-cyano-1-methyl-1H-pyrrol-2-yl)phenyl]benzamide], for which the IC50 amounted to 0.0905 µM.

`Cn1c(C#N)ccc1-c1ccc(NC#N)c(Cl)c1` [Example 33, [2-chloro-4-(5-cyano-1-methyl-1H-pyrrol-2-yl)phenyl]cyanamide]: the IC50 is 0.897 µM.

As to `Cn1c(C#N)ccc1-c1ccc(NC#N)cc1` [Example 28, [4-(5-cyano-1-methyl-1H-pyrrol-2-yl)-phenyl]cyanamide], the IC50 came to 0.0541 µM.

Regarding `CCCc1cc(-c2ccc(C#N)n2C)ccc1NC#N` [Example 31, [4-(5-cyano-1-methyl-1H-pyrrol-2-yl)-2-propylphenyl] cyanamide], the IC50 is less than 0.3 µM.
